Values after ≈ are worked out from the molar mass of the structure shown.
test system: P388; assay: Cytotoxicity against mouse P388 cells; type: functional, cell-based

Compound	IC50 [µg/mL]
CC(C)=CCC/C(C)=C/CC/C(C)=C/CC/C(C)=C/Cc1cc(O)c(C)cc1O	2 (≈ 5.04 µM)
CC(=O)O[C@@H]1CO[C@@H](Oc2cc(C/C=C(\C)CC/C=C(\C)CC/C=C(\C)CCC=C(C)C)c(O)cc2C)[C@@H](O)[C@@H]1O [NEPHTHOSIDE MANOACETATE]	2 (≈ 3.5 µM)
CC(C)=CCC/C(C)=C/CC/C(C)=C/CC/C(C)=C/Cc1cc(O[C@@H]2OC[C@@H](O)[C@@H](O)[C@@H]2O)c(C)cc1O [NEPHTHOSIDE]	2 (≈ 3.78 µM)
CC(=O)OCC(O)(C(Cc1cc(O)c(C)cc1O)OC(C)=O)C12CCC(C)(CC(/C=C(\C)CCC=C(C)C)O1)O2 (centres undefined) [SINDUROL]	1.2 (≈ 2.14 µM)

From ChEMBL document CHEMBL1158209, “Sindurol and Nephthoside: New Tetraprenyltoluquinols from the Soft Coral Sinularia dura and Nephthea sp” (J Nat Prod, 1996)
